Assay results as given in the supplement of paper PMC4380931.

Assays:
[1] = tested on: WM115; test: apoptotic fraction of cells (caspase-3 NucView488 positive); higher = more apoptosis
Description: (§1)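 BRAF V600E/D melanoma cell lines were seeded in 96-well plates, treated in 4 replicates with seven doses (3.16 nM to 3.16 uM) of RAF/MEK inhibitors for 24, 48 or 72 h, and stained with Hoechst 33342 (nuclei) and DEVD-NucView488 caspase-3 substrate. Plates were imaged on an Operetta. Relative viability is the cell count normalised to a DMSO-treated control; apoptosis fraction is the fraction of NucView488-positive nuclei.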

[2] = tested on: K2; test: as above
Description: as §1

[3] = tested on: MMACSF; test: as above
Description: as §1

[4] = tested on: LOXIMVI; test: as above
Description: as §1

[5] = tested on: C32; test: relative viability (cell count relative to DMSO-treated control) (fraction of DMSO control); higher = more viable cells / less drug effect
Description: as §1

[6] = tested on: MZ7MEL; test: as above
Description: as §1

[7] = tested on: LOXIMVI; test: as above; settings: 24 h
Description: as §1

Cn1cnc2c(F)c(Nc3ccc(Br)cc3Cl)c(C(=O)NOCCO)cc21 [Selumetinib]
Settings	apoptotic fraction of cells, [1]	apoptotic fraction of cells, [2]	apoptotic fraction of cells, [3]	apoptotic fraction of cells, [4]	relative viability, [5]	relative viability, [6]
24 h, 0.00316 µM	0.0496	0.00506	0.0508	0.0508	1.02	1.03
24 h, 0.01 µM	0.0509	0.00321	0.0478	0.0393	1.02	1.13
24 h, 0.0316 µM	0.0515	0.00454	0.0349	0.0293	1	1.11
24 h, 0.1 µM	0.0423	0.0128	0.0436	0.0452	0.891	1.07
24 h, 0.316 µM	0.0578	0.0266	0.0526	0.0393	0.938	1.07
24 h, 1 µM	0.102	0.123	0.0569	0.0476	0.861	0.997
24 h, 3.16 µM	0.143	0.142	0.0615	0.0428	0.811	0.809
48 h, 0.00316 µM	0.0459	0.0027	0.0481	0.111	1.24	1.01
48 h, 0.01 µM	0.0343	0.00331	0.039	0.0778	1.09	1.01
48 h, 0.0316 µM	0.0345	0.0058	0.0469	0.0621	1.15	1.04
48 h, 0.1 µM	0.0394	0.0372	0.0518	0.0589	0.959	0.797
48 h, 0.316 µM	0.072	0.0691	0.0667	0.0582	0.71	0.508
48 h, 1 µM	0.186	0.199	0.14	0.0523	0.322	0.504
48 h, 3.16 µM	0.269	0.332	0.232	0.0597	0.127	0.492
72 h, 0.00316 µM	0.0278	–	0.0392	0.161	0.891	1.14
72 h, 0.01 µM	0.027	–	0.0379	0.0676	0.998	1.06
72 h, 0.0316 µM	0.0324	–	0.0318	0.0426	0.952	0.58
72 h, 0.1 µM	0.0559	–	0.0807	0.0445	0.698	0.328
72 h, 0.316 µM	0.115	–	0.193	0.0604	0.347	0.349
72 h, 1 µM	0.302	–	0.434	0.0759	0.112	0.308
72 h, 3.16 µM	0.456	–	0.617	0.105	0.0615	0.31

[7]
Settings	relative viability
0.00316 µM	0.937
0.01 µM	0.976
0.0316 µM	1.02
0.1 µM	1.07
0.316 µM	0.98
1 µM	1
3.16 µM	0.913
